According to the NIST ThermoML archive (doi:10.1021/je500083n):

Experiment: xn = mol fraction of the nth substance listed
Conditions: Gas, Vibrating wire viscometry

C [methane] + CCC
x2 = 0.0548
Conditions | viscosity [mPa·s]
280.16 K, 610 kPa | 0.01039
280.16 K, 1550 kPa | 0.01051
280.17 K, 3150 kPa | 0.01083
280.17 K, 4970 kPa | 0.01143
280.18 K, 5880 kPa | 0.01179
280.2 K, 6560 kPa | 0.01211
280.21 K, 6970 kPa | 0.0123
298.18 K, 870 kPa | 0.01083
298.18 K, 1450 kPa | 0.01096
298.19 K, 4110 kPa | 0.01163
298.2 K, 2650 kPa | 0.01124
298.2 K, 5430 kPa | 0.01211
298.22 K, 6340 kPa | 0.01244
298.22 K, 6700 kPa | 0.01259

C [methane] + O=C=O
x1 = 0.57
Conditions | viscosity [mPa·s]
280.17 K, 6410 kPa | 0.01457
280.2 K, 5490 kPa | 0.01408
280.22 K, 4480 kPa | 0.01364
280.24 K, 3500 kPa | 0.01338
280.31 K, 2510 kPa | 0.0131
280.32 K, 1510 kPa | 0.01303
303.18 K, 5440 kPa | 0.01477
303.18 K, 6330 kPa | 0.01523
303.19 K, 3500 kPa | 0.01411
303.19 K, 4500 kPa | 0.0144
303.2 K, 1500 kPa | 0.01381
303.2 K, 2500 kPa | 0.01387
328.13 K, 6450 kPa | 0.01573
328.14 K, 3490 kPa | 0.01477
328.14 K, 4490 kPa | 0.01504
328.14 K, 5500 kPa | 0.01538
328.15 K, 2500 kPa | 0.01453
328.16 K, 1510 kPa | 0.01447
